Measured values: patent publication US4931447A, “Cycloalkylamides of (8β)-1-alkyl-6-(substituted) ergolines” (Eli Lilly and Company, priority 1989, dated 1990)
Counter-ions that a name gives are not always drawn.

Biological target: T1, 5HT2 Receptors (Rattus norvegicus, UniProt P14842)
T1 construct: from tissue; host or cells: rat external jugular vein (isolated, male Wistar)
Assay: Apparent antagonist dissociation constant (KB) at 5HT2 receptors, serotonin-induced contraction of isolated rat external jugular vein
Format: cell-based, rat (male Wistar)
Conditions: not given
Excerpt: Male Wistar rats (about 150-300 gram weight) were killed and their external jugular veins and thoracic aortas dissected free of connective tissue, cannulated in situ and placed in a modified Krebs' bicarbonate buffer in a suitable tissue bath. Two L-shaped 30-gauge stainless-steel hypodermic needles were inserted in each cannula and the dissected vessels gently pushed onto the needles. One needle was attached with thread to a stationary glass rod and the other to the transducer. [The procedure employed was that described by Hooker, Calkins and Fleisch, Blood Vessels, 14, 1, (1977) for use with circular smooth muscle preparations.]
The modified Krebs' bicarbonate buffer was composed of the following (concentrations in millimoles): sodium chloride, 118.2; potassium chloride, 4.6; calcium chloride dihydrate, 1.6; potassium dihydrogenphosphate, 1.2; magnesium sulfate, 1.2; dextrose, 10.0; sodium bicarbonate, 24.8; and water q.s. to 1000 g. The tissue baths were maintained at 37° C. and were aerated with 95% oxygen: 5% carbon dioxide (v:v). An initial optimum resting force of 1 g and 4 g was applied to the jugular vein and aorta, respectively. Isometric contractions were recorded as changes in grams of force on a Beckman Dynograph with Statham UC-3 transducers and microscale accessory attachment. Tissues were allowed to equilibrate 1 to 2 hours before exposure to drugs. Control responses to serotonin in the jugular vein and to norepinephrine in the aorta were obtained. The vessels were then incubated with appropriate concentrations of the test compound for one hour. Responses to serotonin or to norepinephrine were then repeated in the presence of the test compound. Contraction to serotonin was evaluated in the jugular vein since this tissue produces marked responses to serotonin in the absence of alpha receptors. See Cohen and Wiley, J. Pharm. Exp. Ther., 205, 400 (1978). Alpha receptor antagonist activity was evaluated in the aorta.
Apparent antagonist dissociation constants were determined for each concentration of the test compound according to the following equation: [formula] wherein [B] is the concentration of the antagonist and the dose ratio is the ED50 of the agonist in the presence of the antagonist divided by the control ED50. […] The -log KB values obtained for representative sensitive compounds of this invention and are given below in Table 1. ln the Table, column I provides the Example Number of the compound evaluated in the screen; columns 2-6, the identity of the compound evaluated in the screen when taken with the structure provided; and column 7, the apparent dissociation constant for the test compound.

T1 sequence (P14842 whole entry): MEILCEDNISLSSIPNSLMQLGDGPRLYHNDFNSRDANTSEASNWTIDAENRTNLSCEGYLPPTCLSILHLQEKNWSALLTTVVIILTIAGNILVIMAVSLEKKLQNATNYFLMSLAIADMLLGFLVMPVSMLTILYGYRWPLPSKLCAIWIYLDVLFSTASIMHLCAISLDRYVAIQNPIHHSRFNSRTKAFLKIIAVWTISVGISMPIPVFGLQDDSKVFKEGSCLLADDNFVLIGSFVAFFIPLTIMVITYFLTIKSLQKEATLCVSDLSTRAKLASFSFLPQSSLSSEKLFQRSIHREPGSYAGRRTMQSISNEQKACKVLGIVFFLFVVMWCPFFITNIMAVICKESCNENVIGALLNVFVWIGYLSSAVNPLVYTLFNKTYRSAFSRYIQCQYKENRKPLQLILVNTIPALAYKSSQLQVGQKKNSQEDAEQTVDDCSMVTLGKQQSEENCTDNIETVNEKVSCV

| Compound | Kb |
| --- | --- |
| CO[C@H]1CC[C@@H](NC(=O)[C@@H]2C[C@@H]3c4cccc5c4c(cn5C)C[C@H]3N(C)C2)CC1 [Example 6, (8β)-cis-N-(4-Methoxycyclohexyl)-1,6-dimethylergoline-8-carboxamide maleate] | 0.269 nM |
| CCn1cc2c3c(cccc31)[C@H]1C[C@@H](C(=O)N[C@H]3CC[C@@H](OC)CC3)CN(C)[C@@H]1C2 [Example 7, (8β)-cis-N-(4-Methoxycyclohexyl)-1-ethyl-6-methylergoline-8-carboxamide maleate] | 0.229 nM |
| CC(C)n1cc2c3c(cccc31)[C@H]1C[C@@H](C(=O)NC3CCCCC3O)CN(C)[C@@H]1C2 (stereo partly drawn) [Example 14, (8β)-N-(2-Hydroxycyclohexyl)-1-isopropyl-6-methylergoline-8-carboxamide] | 0.0275 nM |
| CN1C[C@H](C(=O)NC2CCCCC2)C[C@@H]2c3cccc4c3c(cn4C)C[C@H]21 [Example 8, (8β)-N-Cyclohexyl-1,6-dimethylergoline-8carboxamide] | 0.2 nM |
| CC(C)n1cc2c3c(cccc31)[C@H]1C[C@@H](C(=O)NC3CCCC3)CN(C)[C@@H]1C2 [Example 9, (8β)-N-Cyclopentyl-1-isopropyl-6-methylergoline-8-carboxamide] | 0.0468 nM |
| CC1CCC(NC(=O)[C@@H]2C[C@@H]3c4cccc5c4c(cn5C(C)C)C[C@H]3N(C)C2)CC1 (stereo partly drawn) [Example 13, (8β)-N-(4-Methylcyclohexyl)-1-isopropyl-6-methylergoline-8-carboxamide] | 6.46 nM |
| CCCN1C[C@H](C(=O)NC2CCCCC2)C[C@@H]2c3cccc4c3c(cn4C(C)C)C[C@H]21 [Example 3, (8β)-N-Cyclohexyl-1-isopropyl-6-n-propylergoline-8-carboxamide] | 0.794 nM |
| CC(C)n1cc2c3c(cccc31)[C@H]1C[C@@H](C(=O)NC3CCCCCC3)CN(C)[C@@H]1C2 [Example 12, (8β)-N-Cycloheptyl-1-isopropyl-6-methylergoline-8-carboxamide] | 1.05 nM |
| CO[C@H]1CC[C@H](NC(=O)[C@@H]2C[C@@H]3c4cccc5c4c(cn5C(C)C)C[C@H]3N(C)C2)CC1 (relative stereo) [Example 5, (8β)-trans-N-(4-Methoxycyclohexyl)-1-isopropyl-6-methylergoline-8-carboxamide] | 0.186 nM |
| CCn1cc2c3c(cccc31)[C@H]1C[C@@H](C(=O)NC3CCCCC3)CN(C)[C@@H]1C2 [Example 10, (8β)-N-Cyclohexyl-1-ethyl-6-methylergoline-8-carboxamide] | 0.562 nM |

Same assay, conditions: rat external jugular vein, antagonism of serotonin contraction, 1 h incubation, 37° C; read-out: 5HT2 -Log KB (apparent dissociation constant) (converted)

| Compound | Kb |
| --- | --- |
| CC(C)n1cc2c3c(cccc31)[C@H]1C[C@@H](C(=O)N(C)C3CCCCC3)CN(C)[C@@H]1C2 [Example 2, (8β-N-Cyclohexyl-N-methyl-1-isopropyl-6-methylergoline-8-carboxamide maleate] | 1 nM |
| CC(C)n1cc2c3c(cccc31)[C@H]1C[C@@H](C(=O)N[C@H]3CC[C@H](O)CC3)CN(C)[C@@H]1C2 [Example 11, (8β)-trans-N-(4-Hydroxycyclohexyl)-1-isopropyl-methylergoline-8-carboxamide] | 6.46 nM |
| CO[C@H]1CC[C@@H](NC(=O)[C@@H]2C[C@@H]3c4cccc5c4c(cn5C(C)C)C[C@H]3N(C)C2)CC1 [Example 4, (8β)-cis-N-(4-Methoxycyclohexyl)-1-isopropyl-methylergoline-8-carboxamide] | 0.186 nM |
